# Where two headings read alike, the source gives them in different places.
# Assays:
# mouse quadriceps muscle [1] = experiment: Luciferase expression in mouse quadriceps muscle after i.m. injection of plasmid VR1255 with auxiliary agents; conditions: for ability to enhance in vivo expression relative to identical composition without the compound: mouse; for luciferase expression versus 150 mM sodium phosphate alone: day 7
# mouse quadriceps muscle [2] = experiment: Luciferase expression in mouse quadriceps muscle 7 days after i.m. injection of plasmid VR1223 in salt solutions; assay type: in vivo; parameters: lux: unit: ng/muscle; conditions: for ng Lux/Muscle: 50 μg VR1223 in 50 μl; for ng Lux/Muscle / Fold Saline: salts at 150 mM, day 7; for luciferase expression compared with saline (words): 150 mM solutions; for lux: 7-day luciferase expression, VR1223; for Fold Saline: relative to saline
# pH of the salt solutions = assay type: physicochemical
# [3] = Osmolarity of the salt solutions; assay type: physicochemical; conditions: 150 mM unless otherwise indicated
# [4] = 150 mM unless otherwise indicated
molecule,measurement,setting,value
"CCCCCCCCCCCCCCCC[N+](C)(C)CCCS(=O)(=O)[O-] [Zwittergent, n-hexadecyl-N,N-dimethyl-3-ammonio-1-propanesulfonate]",ability to enhance in vivo expression relative to identical composition without the compound,mouse quadriceps muscle [1],no ability to enhance
"CCCCCCCCCCCCO[C@@H]1O[C@H](CO)[C@@H](O[C@H]2O[C@H](CO)[C@@H](O)[C@H](O)[C@H]2O)[C@H](O)[C@H]1O [n-Dodecylmaltoside, n-dodecylmaltoside]",ability to enhance in vivo expression relative to identical composition without the compound,mouse quadriceps muscle [1],no ability to enhance
"OC[C@H]1O[C@H](OC[C@H]2O[C@H](OC[C@H]3O[C@H](O[C@]4(CO)O[C@H](CO)[C@@H](O)[C@@H]4O)[C@H](O)[C@@H](O)[C@@H]3O)[C@H](O)[C@@H](O)[C@H]2O)[C@H](O)[C@@H](O)[C@H]1O [Stachyose, stachyose]",luciferase expression versus 150 mM sodium phosphate alone,mouse quadriceps muscle [1],significantly increased expression
[Cl-].[K+] [Potassium Chloride],ng Lux/Muscle,mouse quadriceps muscle [2],124 ng/Muscle
same,luciferase expression compared with saline (words),"mouse quadriceps muscle [2]; VR1223, day 7",no ability to enhance
same,lux,mouse quadriceps muscle [2]; Table III-A,124
same,lux,mouse quadriceps muscle [2]; Table III-B,124
same,Fold Saline,mouse quadriceps muscle [2],1.0 Fold
same,pH,pH of the salt solutions; [4],5.5
same,Osm,[3],280 mmol/kg
"CCCCCCC(=O)N(C)C[C@H](O)[C@@H](O)[C@H](O)[C@H](O)CO [MEGA 7, heptanoyl-N-methyl-glucamide]",ability to enhance in vivo expression relative to identical composition without the compound,mouse quadriceps muscle [1],no ability to enhance
"CCCCCCCCCCCCOS(=O)(=O)[O-].[Na+] [SDS, sodium dodecyl sulfate]",luciferase expression versus 150 mM sodium phosphate alone,mouse quadriceps muscle [1],significantly increased expression
CC(=O)C(=O)[O-].[Na+] [Sodium Pyruvate],ng Lux/Muscle,mouse quadriceps muscle [2],364 ng/Muscle
same,luciferase expression compared with saline (words),"mouse quadriceps muscle [2]; VR1223, day 7",increased luciferase expression compared with saline
same,lux,mouse quadriceps muscle [2]; Table III-A,364
same,lux,mouse quadriceps muscle [2]; Table III-B,364
same,Fold Saline,mouse quadriceps muscle [2],3.1 Fold
same,pH,pH of the salt solutions; [4],6.0
same,Osm,[3],271 mmol/kg
Calcium Phosphate,ng Lux/Muscle,mouse quadriceps muscle [2],12 ng/Muscle
same,luciferase expression compared with saline (words),"mouse quadriceps muscle [2]; VR1223, day 7",no ability to enhance
same,lux,mouse quadriceps muscle [2]; Table III-A,12
same,lux,mouse quadriceps muscle [2]; Table III-B,12
same,Fold Saline,mouse quadriceps muscle [2],0.1 Fold
same,pH,pH of the salt solutions; [4],6.0
same,Osm,[3],36 mmol/kg
"O=C(O)CN(CCN(CC(=O)O)CC(=O)O)CC(=O)O [EDTA, ethylenediamine tetraacetic acid]",luciferase expression versus 150 mM sodium phosphate alone,mouse quadriceps muscle [1],significantly increased expression
polyoxyethylene sorbitan monooleate [Tween 80],luciferase expression versus 150 mM sodium phosphate alone,mouse quadriceps muscle [1],significantly increased expression
[Ca+2].[Cl-].[Cl-] [Calcium Chloride],ng Lux/Muscle,mouse quadriceps muscle [2],0.3 ng/Muscle
same,luciferase expression compared with saline (words),"mouse quadriceps muscle [2]; VR1223, day 7",no ability to enhance
same,lux,mouse quadriceps muscle [2]; Table III-A,0.3
same,lux,mouse quadriceps muscle [2]; Table III-B,0.3
same,Fold Saline,mouse quadriceps muscle [2],<0.1 Fold
same,pH,pH of the salt solutions; [4],5.5
same,Osm,[3],362 mmol/kg
Macrogol-50 stearate [MYRJ 53],ability to enhance in vivo expression relative to identical composition without the compound,mouse quadriceps muscle [1],no ability to enhance
O=C([O-])O.[Na+] [Sodium Bicarbonate],ng Lux/Muscle,mouse quadriceps muscle [2],330 ng/Muscle
same,luciferase expression compared with saline (words),"mouse quadriceps muscle [2]; VR1223, day 7",increased luciferase expression compared with saline
same,lux,mouse quadriceps muscle [2]; Table III-A,330
same,lux,mouse quadriceps muscle [2]; Table III-B,330
same,"luciferase expression, fold over saline","mouse quadriceps muscle [2]; VR1223, day 7",2.8 fold
same,Fold Saline,mouse quadriceps muscle [2],2.8 Fold
same,pH,pH of the salt solutions,9.0
same,pH,pH of the salt solutions; [4],9.0
same,Osm,[3],727 mmol/kg
[Cl-].[Cl-].[Mg+2] [Magnesium Chloride],ng Lux/Muscle,mouse quadriceps muscle [2],1 ng/Muscle
same,luciferase expression compared with saline (words),"mouse quadriceps muscle [2]; VR1223, day 7",no ability to enhance
same,lux,mouse quadriceps muscle [2]; Table III-A,1
same,lux,mouse quadriceps muscle [2]; Table III-B,1
same,Fold Saline,mouse quadriceps muscle [2],<0.1 Fold
same,pH,pH of the salt solutions; [4],5.5
same,Osm,[3],360 mmol/kg
O=P([O-])([O-])OP(=O)([O-])[O-].[Na+].[Na+].[Na+].[Na+] [Sodium Pyrophosphate],lux,mouse quadriceps muscle [2]; Table III-A,3
same,lux,mouse quadriceps muscle [2]; Table III-B,3
same,pH,pH of the salt solutions; [4],9.0
same,Osm,[3],363 mmol/kg
octyl phenol ethylene oxide condensate with about 7-8 ethylene oxide units [Triton X-114],luciferase expression versus 150 mM sodium phosphate alone,mouse quadriceps muscle [1],significantly increased expression
sorbitan monolaurate [SPAN 20],ability to enhance in vivo expression relative to identical composition without the compound,mouse quadriceps muscle [1],no ability to enhance
OCc1ccccc1 [benzyl alcohol],ability to enhance in vivo expression relative to identical composition without the compound,mouse quadriceps muscle [1],no ability to enhance
polysorbate 40 [Tween-40®],ability to enhance in vivo expression relative to identical composition without the compound,mouse quadriceps muscle [1],no ability to enhance
"C[S+](C)[O-] [DMSO, dimethylsulfoxide]",luciferase expression versus 150 mM sodium phosphate alone,mouse quadriceps muscle [1],significantly increased expression
"CCCCCCCCC(=O)N(C)C[C@H](O)[C@@H](O)[C@H](O)[C@H](O)CO [MEGA 9, nonanoyl-N-methyl-glucamide]",ability to enhance in vivo expression relative to identical composition without the compound,mouse quadriceps muscle [1],no ability to enhance
polyoxyethylene 20 stearyl ether,ability to enhance in vivo expression relative to identical composition without the compound,mouse quadriceps muscle [1],no ability to enhance
"C[C@H](CCC(=O)NCCC[N+](C)(C)CCCS(=O)(=O)[O-])[C@H]1CC[C@H]2[C@@H]3[C@H](O)C[C@@H]4C[C@H](O)CC[C@]4(C)[C@H]3C[C@H](O)[C@]12C [CHAPS, 3[(3-Cholamidopropyl)dimethylammonio]-1-propanesulfonate]",ability to enhance in vivo expression relative to identical composition without the compound,mouse quadriceps muscle [1],no ability to enhance
O=C(O)CN(CCOCCOCCN(CC(=O)O)CC(=O)O)CC(=O)O [EGTA],ability to enhance in vivo expression relative to identical composition without the compound,mouse quadriceps muscle [1],no ability to enhance
octyl phenol ethylene oxide condensate with about 9 ethylene oxide units [Nonidet P40],luciferase expression versus 150 mM sodium phosphate alone,mouse quadriceps muscle [1],significantly increased expression
polyoxyethylene 10 cetyl ether,ability to enhance in vivo expression relative to identical composition without the compound,mouse quadriceps muscle [1],no ability to enhance
polyoxyethylene sorbitan monolaurate [Tween 20],luciferase expression versus 150 mM sodium phosphate alone,mouse quadriceps muscle [1],significantly increased expression
(octyl phenoxy) polyethoxyethanol [IGEPAL CA 630®],luciferase expression versus 150 mM sodium phosphate alone,mouse quadriceps muscle [1],significantly increased expression
PEG-40 Stearate [MYRJ 52],ability to enhance in vivo expression relative to identical composition without the compound,mouse quadriceps muscle [1],no ability to enhance
"CCCCCCCC(=O)N(C)C[C@H](O)[C@@H](O)[C@H](O)[C@H](O)CO [MEGA 8, octanyol-N-methyl-glucamide]",ability to enhance in vivo expression relative to identical composition without the compound,mouse quadriceps muscle [1],no ability to enhance
Actin,ability to enhance in vivo expression relative to identical composition without the compound,mouse quadriceps muscle [1],no ability to enhance
CCCCCCCCO[C@@H]1O[C@H](CO)[C@@H](O)[C@H](O)[C@H]1O [n-octylglucoside],ability to enhance in vivo expression relative to identical composition without the compound,mouse quadriceps muscle [1],no ability to enhance

# — patent US6875748B2, “Compositions and methods for in vivo delivery of polynucleotide-based therapeutics” (Vical Incorporated, priority 2000, dated 2005)
